From article PMC3034713, “Targeting Vascular NADPH Oxidase 1 Blocks Tumor Angiogenesis through a PPARα Mediated Mechanism” (PLoS ONE, 2011)

Experiments:
PI3K a, b, d, g = experiment: Pharmacological profiling (Cerep), Table S1
LLC1 and B16F0 cells = experiment: Tumor cell proliferation (EdU incorporation, propidium iodide); assay type: cell-based; conditions: 10 μM, 24h
Experimental: (§1) Supplementary file pone.0014665.s008.tif: Figure S7 Effect of GKT 136901 on tumor cells. a. LLC1 and B16F0 cell proliferation was measured by EdU incorporation and propidium iodide staining of DNA content, 24h after incubation with 10 μM of GKT136901. b. LLC1 apoptosis was measured by AnnexinV/PI staining after 24h of incubation with 10 μM of GKT136901. c. ROS levels produced by LLC1 are inhibited by GKT136901. ROS production was quantified by DHE substrate 1h after incubation with 10 μM of the inhibitor. *** p<0.001 (student t-test). (6.11 MB TIF) Click here for additional data file.

[1] = tested on: murine and human endothelial cells (MLEC, HUVEC, mouse endothelioma); experiment: ROS measurement with DHE in endothelial cells stimulated with VEGF or bFGF; assay type: cell-based; conditions: 10 µM
Experimental: Endothelial cells were seeded on glass slides and stained with dihydroethidium (DHE). Images were captured with an inverted microscope and analyzed with Metafluor imaging software (MDS Analytical Technologies). Quantification was performed by measuring the fluorescence intensity of over minimum 50 endothelial cells per slide.

[2] = tested on: Heart, Kidney, Liver and Lung of mice; conditions: mouse, in vivo
Experimental: Supplementary file pone.0014665.s009.tif: Figure S8 Non toxic effect GKT 136901 on mice organs. Heart (a), Kidney (b), Liver (c) and Lung (d) of mice treated orally with vehicle or with vehicle plus GKT136901 inhibitor at 40 mg/kg per day during 8 days, stained by Hematoxilin/Eosin. Scale bars represent 100 μm on the full picture and 20 μm on the zoom. Images were acquired with a 20x/0.8 numeric aperture and analyzed using Mirax (Carl Zeiss). (8.38 MB TIF) Click here for additional data file.

iNoS = iNoS (Homo sapiens, UniProt P35228); experiment: Pharmacological profiling (Cerep), Table S1
LLC1 [3] = experiment: Tumor cell apoptosis (AnnexinV/PI staining); assay type: cell-based; conditions: 10 μM, 24h
Experimental: as §1

12-Lipoxygenase = 12-Lipoxygenase (Homo sapiens, UniProt P18054); experiment: Pharmacological profiling (Cerep), Table S1
Chain of 12-Lipoxygenase (P18054 whole entry): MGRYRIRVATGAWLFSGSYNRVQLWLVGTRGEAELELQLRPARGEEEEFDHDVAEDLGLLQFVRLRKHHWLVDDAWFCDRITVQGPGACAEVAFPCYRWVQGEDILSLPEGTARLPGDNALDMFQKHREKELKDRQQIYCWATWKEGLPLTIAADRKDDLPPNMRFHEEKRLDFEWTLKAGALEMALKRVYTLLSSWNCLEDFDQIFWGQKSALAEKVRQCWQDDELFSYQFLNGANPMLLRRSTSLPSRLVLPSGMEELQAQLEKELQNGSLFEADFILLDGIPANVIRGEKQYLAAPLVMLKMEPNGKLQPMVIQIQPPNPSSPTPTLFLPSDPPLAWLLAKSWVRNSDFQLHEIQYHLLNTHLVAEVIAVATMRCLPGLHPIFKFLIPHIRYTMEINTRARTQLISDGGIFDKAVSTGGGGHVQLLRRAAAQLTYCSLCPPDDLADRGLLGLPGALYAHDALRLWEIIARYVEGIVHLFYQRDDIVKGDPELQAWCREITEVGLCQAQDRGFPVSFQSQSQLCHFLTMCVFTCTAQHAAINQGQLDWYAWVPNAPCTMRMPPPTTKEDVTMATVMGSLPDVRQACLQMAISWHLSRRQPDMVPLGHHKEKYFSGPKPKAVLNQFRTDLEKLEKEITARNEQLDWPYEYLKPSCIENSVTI

NOX4 = target: T1, NOX4 (Homo sapiens, UniProt Q9NPH5); experiment: NOX inhibition in cell free assay, membranes from cells overexpressing NOX4 (Amplex Red ROS); assay type: biochemical; conditions: Figure S2
T1 construct: expressed in transfected cells
T1 sequence (Q9NPH5 whole entry, species assumed, one chain of several): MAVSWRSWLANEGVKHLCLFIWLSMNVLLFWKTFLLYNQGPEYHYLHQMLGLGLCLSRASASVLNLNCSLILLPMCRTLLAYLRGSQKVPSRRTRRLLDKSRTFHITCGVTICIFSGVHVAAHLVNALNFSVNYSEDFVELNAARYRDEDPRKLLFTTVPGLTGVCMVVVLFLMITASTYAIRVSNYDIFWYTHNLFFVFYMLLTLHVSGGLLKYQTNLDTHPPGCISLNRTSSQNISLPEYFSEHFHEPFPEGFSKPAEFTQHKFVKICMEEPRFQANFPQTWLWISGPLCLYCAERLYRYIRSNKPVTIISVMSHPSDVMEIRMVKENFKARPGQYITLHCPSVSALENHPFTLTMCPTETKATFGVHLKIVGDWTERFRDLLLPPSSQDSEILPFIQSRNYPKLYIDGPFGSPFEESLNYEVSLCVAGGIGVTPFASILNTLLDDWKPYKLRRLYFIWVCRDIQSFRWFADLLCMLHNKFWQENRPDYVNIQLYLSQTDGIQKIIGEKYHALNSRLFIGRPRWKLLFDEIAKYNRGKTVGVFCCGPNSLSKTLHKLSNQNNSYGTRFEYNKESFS
Experimental: (§2) Membranes from NOX2 expressing PMN cells or from cells overexpressing NOX1 or NOX4 were prepared as previously described. After resuspension in sonication buffer (11% sucrose, 120 mM NaCl, 1 mM EGTA in PBS, pH 7.4 for NOX4-expressing cells) or in relax buffer (10 mM Pipes, 3 mM NaCl, 3.5 mM MgCl2, 0.1 M KCl, pH 7.4), cells were broken by sonication and centrifuged (200 g, 10 min). The supernatant was loaded onto a 17/40% (w/v) discontinuous sucrose gradient and centrifuged (150,000 g for 30 min). Membrane fractions were collected and stored at −80°C. ROS production measurements of membranes expressing different NOX subunits was determined as previously described using the Amplex Red method (Invitrogen).

LLC1 [4] = experiment: ROS production by tumor cells (DHE substrate); assay type: cell-based; conditions: 10 μM, 1h
Experimental: as §1

cNos = experiment: Pharmacological profiling (Cerep), Table S1; assay type: biochemical
MLEC [5] = experiment: Endothelial cell sprouting assay (tube-like structure formation, 3D culture); assay type: cell-based, mouse; conditions: MLEC, 10 µM
Experimental: Sprouting assay was performed as described previously. Briefly, endothelial cells were plated in 96 well plates at 8,000 cells per well in a 3D fibrin gel. Above the gel, 10% FCS containing DMEM was complemented with 200 KIU/ml of Aprotinin (Sigma). Length of branches was evaluated using the Metamorph program. Results are expressed in mm of skeleton length/number of cells.

MLEC [6] = experiment: Wound healing assay (endothelial cell migration); assay type: cell-based, mouse
Experimental: Wound healing assay was performed as described previously. Briefly, endothelial cells were plated in Matrigel (Becton Dickinson) precoated 96 wells plates. One day after plating the cell monolayer was scratched to make a regular wound. Cells were allowed to migrate overnight. Migration area was then measured and calculated using the Metamorph program (MDS Analytical Technologies).

xanthine oxidase = xanthine oxidase (Homo sapiens, UniProt P47989); experiment: Xanthine oxidase inhibition, concentration-response; assay type: biochemical
Chain of xanthine oxidase (P47989 whole entry, species assumed): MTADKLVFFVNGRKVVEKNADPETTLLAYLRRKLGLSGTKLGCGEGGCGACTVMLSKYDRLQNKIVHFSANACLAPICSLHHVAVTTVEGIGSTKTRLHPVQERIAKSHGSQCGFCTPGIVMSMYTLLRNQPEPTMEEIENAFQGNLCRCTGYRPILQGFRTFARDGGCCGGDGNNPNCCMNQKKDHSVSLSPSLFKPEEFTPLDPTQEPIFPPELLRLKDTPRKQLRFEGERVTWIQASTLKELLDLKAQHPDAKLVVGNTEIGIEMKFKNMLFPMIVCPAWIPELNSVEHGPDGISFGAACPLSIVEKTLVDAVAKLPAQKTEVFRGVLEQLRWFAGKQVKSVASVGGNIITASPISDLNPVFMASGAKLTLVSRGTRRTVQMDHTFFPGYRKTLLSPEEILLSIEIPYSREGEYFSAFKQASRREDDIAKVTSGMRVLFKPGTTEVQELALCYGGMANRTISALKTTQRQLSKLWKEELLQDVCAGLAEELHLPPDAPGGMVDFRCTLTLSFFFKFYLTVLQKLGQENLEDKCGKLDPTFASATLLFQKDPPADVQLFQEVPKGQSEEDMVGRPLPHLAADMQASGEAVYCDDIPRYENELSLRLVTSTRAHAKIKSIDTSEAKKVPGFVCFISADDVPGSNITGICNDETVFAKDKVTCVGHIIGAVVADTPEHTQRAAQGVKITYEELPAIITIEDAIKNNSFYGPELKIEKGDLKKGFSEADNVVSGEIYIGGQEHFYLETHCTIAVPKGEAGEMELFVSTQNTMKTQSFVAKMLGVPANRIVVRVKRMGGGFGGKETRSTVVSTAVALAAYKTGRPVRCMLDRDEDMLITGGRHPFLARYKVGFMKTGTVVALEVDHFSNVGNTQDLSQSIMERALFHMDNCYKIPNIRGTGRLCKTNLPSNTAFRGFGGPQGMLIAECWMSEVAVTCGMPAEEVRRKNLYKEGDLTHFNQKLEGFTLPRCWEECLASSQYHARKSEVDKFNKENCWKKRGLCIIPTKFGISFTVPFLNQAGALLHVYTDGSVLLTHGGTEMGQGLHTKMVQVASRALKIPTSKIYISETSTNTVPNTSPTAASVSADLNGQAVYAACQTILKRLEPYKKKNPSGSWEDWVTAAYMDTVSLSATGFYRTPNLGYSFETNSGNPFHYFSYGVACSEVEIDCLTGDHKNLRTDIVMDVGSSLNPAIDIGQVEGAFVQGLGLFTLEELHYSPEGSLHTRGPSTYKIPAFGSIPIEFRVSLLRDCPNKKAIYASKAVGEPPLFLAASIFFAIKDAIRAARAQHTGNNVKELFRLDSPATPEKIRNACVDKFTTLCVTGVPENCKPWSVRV

NOX2 = target: T2, NOX2 (Homo sapiens, UniProt P04839); experiment: NOX inhibition in cell free assay, membranes from NOX2 expressing PMN cells (Amplex Red ROS); assay type: biochemical
T2 construct: Membranes from NOX2 expressing PMN cells; endogenous in cells; host or cells: PMN cells
T2 sequence (P04839 2-570 limits assumed): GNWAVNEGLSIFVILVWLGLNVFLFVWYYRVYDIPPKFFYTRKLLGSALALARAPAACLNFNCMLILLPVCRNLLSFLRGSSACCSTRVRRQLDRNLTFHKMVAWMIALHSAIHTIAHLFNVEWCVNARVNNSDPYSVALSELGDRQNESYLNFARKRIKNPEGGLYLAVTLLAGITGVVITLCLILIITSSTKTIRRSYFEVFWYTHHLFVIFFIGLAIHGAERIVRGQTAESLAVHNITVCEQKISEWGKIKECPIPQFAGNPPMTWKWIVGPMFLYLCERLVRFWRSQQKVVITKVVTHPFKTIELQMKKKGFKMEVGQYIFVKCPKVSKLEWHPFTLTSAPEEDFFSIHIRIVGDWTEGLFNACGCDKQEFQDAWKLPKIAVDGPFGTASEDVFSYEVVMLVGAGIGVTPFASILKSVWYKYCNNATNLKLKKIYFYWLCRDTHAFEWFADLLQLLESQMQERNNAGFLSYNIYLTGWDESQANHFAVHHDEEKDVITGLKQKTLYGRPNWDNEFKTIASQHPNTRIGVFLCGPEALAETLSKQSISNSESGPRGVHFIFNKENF
T2 sequence (P13498 2-195 partner limits assumed): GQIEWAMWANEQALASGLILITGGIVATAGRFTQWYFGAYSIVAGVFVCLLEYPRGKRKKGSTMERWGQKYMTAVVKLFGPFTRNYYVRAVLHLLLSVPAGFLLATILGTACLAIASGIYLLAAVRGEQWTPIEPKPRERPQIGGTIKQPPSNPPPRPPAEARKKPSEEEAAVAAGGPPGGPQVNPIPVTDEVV
Experimental: as §2

MPO = MPO (Homo sapiens, UniProt P05164); experiment: Pharmacological profiling (Cerep), Table S1
Chain of MPO (P05164 49-745, species assumed): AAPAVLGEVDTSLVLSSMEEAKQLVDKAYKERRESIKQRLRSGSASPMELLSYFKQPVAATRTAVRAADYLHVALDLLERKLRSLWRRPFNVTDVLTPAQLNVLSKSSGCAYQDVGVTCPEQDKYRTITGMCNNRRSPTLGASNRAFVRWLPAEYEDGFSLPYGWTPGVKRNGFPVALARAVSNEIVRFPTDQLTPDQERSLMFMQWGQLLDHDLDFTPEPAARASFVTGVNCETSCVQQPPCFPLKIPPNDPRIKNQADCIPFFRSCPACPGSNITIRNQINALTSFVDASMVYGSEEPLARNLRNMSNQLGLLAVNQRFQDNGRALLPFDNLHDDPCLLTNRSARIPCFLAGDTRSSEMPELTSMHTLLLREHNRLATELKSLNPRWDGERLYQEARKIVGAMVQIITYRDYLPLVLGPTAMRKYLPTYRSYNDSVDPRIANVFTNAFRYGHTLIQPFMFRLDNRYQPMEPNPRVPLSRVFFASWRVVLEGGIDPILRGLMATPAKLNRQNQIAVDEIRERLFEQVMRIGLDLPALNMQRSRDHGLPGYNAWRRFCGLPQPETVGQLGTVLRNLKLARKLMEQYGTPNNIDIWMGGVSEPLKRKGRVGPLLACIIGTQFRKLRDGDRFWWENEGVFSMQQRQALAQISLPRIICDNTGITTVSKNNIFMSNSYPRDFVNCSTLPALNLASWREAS

Compound: Cc1c2c(=O)n(-c3ccccc3Cl)[nH]c2cc(=O)n1Cc1ccccn1 [GKT136901]
- % Inhibition at 10 µM (PI3K a, b, d, g): 0%
- tumor cell proliferation in vitro (LLC1 and B16F0 cells): did not interfere
- ROS induction after VEGF or bFGF stimulation [1]: did not induce ROS
- toxic effect on mice (organ histology) [2]: no toxic effect
- % Inhibition at 10 µM (iNoS): 0%
- tumor cell apoptosis in vitro (LLC1 [3]): did not interfere
- % Inhibition at 10 µM (12-Lipoxygenase): 2%
- extent of inhibition of oxidase activity of NOX4 (NOX4): completely inhibits
- ROS levels produced by LLC1 (LLC1 [4]): inhibited
- % Inhibition at 10 µM (cNos): 0%
- tube formation (MLEC [5]): inhibition
- endothelial cell migration (MLEC [6]; MLEC, 10 µM): inhibition
- endothelial cell migration or invasion in PPARα-deficient cells (MLEC [6]; PPARα-deficient endothelial cells, data not shown): did not affect
- Ki (xanthine oxidase): > 100000 nM
- potency on NOX2 relative to NOX1 and NOX4 (NOX2): ten-fold lower
- extent of inhibition of oxidase activity of NOX2 (NOX2; Figure S2): only a partial effect
- Ki (NOX2; cell-free, membranes from NOX2 expressing PMN cells): 1530 ± 90 nM
- % Inhibition at 10 µM (MPO): 0%
